Key:
[1] = test system: SYCP3, SPESP1, and DAZL1 gene expression in EBC1, Lu65, and HT-29; test: Gene expression in cancer cell lines cultured with gemcitabine; type: cell-based, human; conditions: EBC1, Lu65, HT-29 cultured in the presence of gemcitabine
[2] = test system: HLA-DR4, DR8, DR9, DR15, DR53; test: HLA type restriction of partial DAZL-1 peptides with L-DR cells; type: cell-based, human
helper T-cells = test: IFN-γ ELISA after DAZL-1C vaccination of Balb/c mice; type: in vivo, mouse
Procedure: Two BALB/cAnNCrlCrlj mice (Balb/c, 10 to 16 weeks old, Charles river) were intradermally injected with 100 μg/50 μL DAZL-1C peptide ([…] (SEQ ID NO: 20): synthesized by GenScript) dissolved in phosphate-buffered saline (PBS, KANTO CHEMICAL CO., INC. 73111) using Myjector (TERUMO SS_05M2913) on Days 0 and 10. The mice were euthanized by intraperitoneally administering 200 μL of 500 μg/mL pentobarbital (nacalai tesque 02095-04) on Day 12. After laparotomy, dLNs and spleens were collected and lymphocytes and splenocytes, respectively, were isolated.
The lymphocytes (3×10^5 cells) and the splenocytes (5×10^5 cells) were added to 96-well flat bottom culture plates (Falcon 353072), and the cells were co-cultured in the presence of a control peptide or DAZL-1C peptide (2.5 μg/mL) in the complete medium at 200 μL/well for 24 hours. In order to detect IFN-γ production specific to DAZL-1C peptide, each 100 μL of the culture supernatants after 24 hours were collected, and the IFN-γ concentrations were determined using an ELISA set (BD Biosciences 551866) in accordance with the description of the attached package insert. In order to confirm that the reaction is produced by CD4-positive T-cells, an anti-mouse CD4 antibody (aCD4; BioLegend 100435) or an anti-mouse CD8 antibody (aCD8; BioLegend 100735) was added to some cultures at the final concentration of 5 μg/mL.

[3] = test system: SYCP3-A-specific Th cells; test: IFN-γ ELISA of SYCP3-A peptide-specific Th cells co-cultured with PBMCs; type: cell-based, human; conditions: for IFN-γ production of SYCP3-A peptide-specific Th cells: peptide 3 μg/mL, Th cells plus PBMCs of same donor
Procedure: PBMCs were collected from peripheral blood samples of healthy donors by a density gradient separation method using Lymphoprep (Alere Technologies AS 1114547). CD14 positive cells were separated from PBMCs using a magnetic cell separation system (Miltenyi 130-050-201). Differentiation into dendritic cells (DCs) was induced by culturing the cells in the presence of 50 ng/mL GM-CSF (peprotech AF-300-03) and 50 ng/mL IL-4 (peprotech AF-200-04) with 3 mL of a culture medium for human cells in 6-well culture plates (Falcon 353046) for 7 days. The culture medium was AIM-V medium (ThermoFisher SCIENTIFIC 0870112DK) supplemented with 3% of human AB serum (Innovative RESEARCH IPLA-SERAB) inactivated at 56° C. for 30 minutes. Similarly, CD4-positive T-cells were isolated from PBMCs (Miltenyi 130-045-101), and 1×10^5 CD4-positive T-cells were co-cultured with 5×10^4 DCs in the presence of SYCP3-A or SPESP1-B peptide (3 μg/mL) in 96-well flat bottom culture plates (Falcon 353072) at the volume of 200 μL. After 7 days, in order to stimulate the CD4-positive T-cells with the peptide, 100 μL of the culture supernatant was removed from each well, and then SYCP3-A or SPESP1-B peptide (3 μg/mL) and PBMCs (2×10^5) inactivated by gamma-irradiation (40 Gy) were added at the volume of 100 μL. After 2 days, 50 μL of the culture supernatant was removed, and 50 μL of IL-2 (Imunace35, Shionogi) was added at the final concentration of 10 U/mL. For continuous proliferation of the activated CD4-positive T-cells, the cells (1×10^6 cells) were stimulated with SYCP3-A or SPESP1-B peptide and the inactivated PBMCs (1×10^6 cells) every other week and used for the experiments described below.
In order to study the HLA-restriction of the CD4-positive T-cells, an anti-DR antibody (BioLegend 307612) or an anti-HLA-class I antibody (BioLegend 311412) as a control was added to some cultures at the final concentration of 5 μg/mL.

CD4-positive T-cells = test: IFN-γ ELISPOT after peptide vaccination of HLA transgenic mice; type: in vivo, mouse; conditions: A2.DR1-Tg mice vaccinated with partial peptides, stimulation 3 μg/mL, 24 hours
Procedure: HLA-A*02:01/DRB1*01:01 transgenic mice (A2.DR1-Tg mice, […]; Pasteur Institute, France) were intradermally injected with SYCP3-A peptide (synthesized by GenScript) dissolved in 100 μL of PBS using Myjector on Days […]. The mice were euthanized by intraperitoneally administering 200 μL of 500 μg/mL pentobarbital on Day 15. After laparotomy, tumor-draining lymph nodes (dLNs) and spleens were collected and lymphocytes and splenocytes, respectively, were isolated.
The lymphocytes (3×10^5 cells) and the splenocytes (5×10^5 cells) were added to ELISPOT plates (EMD Millipore, MAHAS4510), and the cells were co-cultured in the presence of a control peptide (a peptide of 15 amino acid residues having a sequence not included in SYCP3) or SYCP3-A peptide selected in Test 4 (3 μg/mL) in the complete medium at 150 μL/well for […]. In order to detect the cells producing IFN-γ specifically to SYCP3-A peptide, the ELISPOT assay was performed using a mouse IFN-γ ELISpot BASIC (ALP) kit (MABTECH 3321-2A). The procedure was in accordance with the description of the attached package insert. BCIP-NBT-plus substrate for ELISpot (MABTECH 3650-10) was used as a chromogenic substrate, and PBS-T was used for washing at each step. In addition, in order to confirm that the reaction is produced by CD4-positive T-cells, an anti-mouse CD4 antibody (BioLegend 100435) or an anti-mouse CD8 antibody (BioLegend 100735) was added to some cultures at the final concentration of 5 μg/mL.
As described above, A2.DR1-Tg mice were vaccinated with these partial peptides, dLNs and spleens were collected from each mouse, lymphocytes and splenocytes were isolated, the cells were stimulated with each partial peptide (3 μg/mL) for 24 hours, and the T-cell responses were determined by ELISPOT. CD4-positive T-cells responded to the partial peptides T2, T3, and T4.

DAZL1-specific Th cells = test: IFN-γ ELISA of DAZL-1 peptide-specific Th cells; type: cell-based, human
Procedure: (§1) PBMCs were collected from peripheral blood samples of healthy donors by a density gradient separation method using Lymphoprep (Alere Technologies AS 1114547). CD14 positive cells were separated from PBMCs using a magnetic cell separation system (Miltenyi 130-050-201). Differentiation into dendritic cells (DCs) was induced by culturing the cells in the presence of 50 ng/mL GM-CSF (peprotech AF-300-03) and 50 ng/mL IL-4 (peprotech AF-200-04) with 3 mL of a culture medium for human cells in 6-well culture plates (Falcon 353046) for 7 days. The culture medium was AIM-V medium (ThermoFisher SCIENTIFIC 0870112DK) supplemented with 3% of human AB serum (Innovative RESEARCH IPLA-SERAB) inactivated at 56° C. for 30 minutes. Similarly, CD4-positive T-cells were isolated from PBMCs (Miltenyi 130-045-101), and 1×10^5 CD4-positive T-cells were co-cultured with 5×10^4 DCs in the presence of SYCP3-A or SPESP1-B peptide (3 μg/mL) in 96-well flat bottom culture plates (Falcon 353072) at the volume of 200 μL. […]
The IFN-γ concentrations of the culture supernatants were determined in the same manner as in Test 8, except that partial DAZL-1 peptide p11, p12, or p13 was used instead of SYCP3-A peptide. […]

HLA-DR53 [4] = target: T1, HLA-DR53 (Homo sapiens, UniProt P01903+P13762); test: HLA type restriction of SPESP1-B with L-DR53; type: cell-based
T1 construct: expressed in transfected cells; host or cells: mouse fibroblast cell line L-DR53
Procedure: The IFN-γ concentrations of the culture supernatants were determined in the same manner as in Test 8, except that SPESP1-B peptide was used instead of SYCP3-A peptide. Two SPESP1-B-specific Th cell clones (HK15 and HK18) were established from one healthy donor. The peptide-specific IFN-γ production was suppressed when the anti-HLA-DR antibody (aDR) was added to the clones.

[5] = test system: SPESP1-B-specific Th cells; test: IFN-γ ELISA of SPESP1-B peptide-specific Th cells; type: cell-based, human
Procedure: as §1
The IFN-γ concentrations of the culture supernatants were determined in the same manner as in Test 8, except that SPESP1-B peptide was used instead of SYCP3-A peptide. […]

HLA-DR53 [6] = test: HLA type restriction of SYCP3-A with L-DR mouse fibroblast cells; type: cell-based, human; conditions: SYCP3-A 3 μg/mL
Procedure: (§2) Furthermore, in order to identify the HLA type to which the peptide is restricted, the CD4-positive T-cells (5×10^4 cells) and 3×10^4 cells of a mouse fibroblast cell line having HLA-DR4, DR8, DR9, or DR53 gene (L-DR4, L-DR8, L-DR9, or L-DR53) were co-cultured in the presence of SYCP3-A peptide (3 μg/mL) in 96-well flat bottom culture plates using 200 μL of the culture medium for human cells, and after 24 to 48 hours the IFN-γ concentrations in the culture supernatants were determined as described above.

HLA-DR53 [7] = target: T1, HLA-DR53; test: as above; type: cell-based; conditions: SYCP3-A 3 μg/mL, L-DR53 cells, 24 to 48 hours
Procedure: as §2

T1 sequence (P13762 30-266): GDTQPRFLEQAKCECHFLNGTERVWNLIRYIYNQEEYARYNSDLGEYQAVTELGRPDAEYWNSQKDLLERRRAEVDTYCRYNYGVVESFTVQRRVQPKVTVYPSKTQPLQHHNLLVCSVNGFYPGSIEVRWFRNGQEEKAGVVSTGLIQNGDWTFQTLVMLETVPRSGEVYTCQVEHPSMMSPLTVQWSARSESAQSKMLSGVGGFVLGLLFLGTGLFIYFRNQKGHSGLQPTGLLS
T1 sequence (P01903 26-254): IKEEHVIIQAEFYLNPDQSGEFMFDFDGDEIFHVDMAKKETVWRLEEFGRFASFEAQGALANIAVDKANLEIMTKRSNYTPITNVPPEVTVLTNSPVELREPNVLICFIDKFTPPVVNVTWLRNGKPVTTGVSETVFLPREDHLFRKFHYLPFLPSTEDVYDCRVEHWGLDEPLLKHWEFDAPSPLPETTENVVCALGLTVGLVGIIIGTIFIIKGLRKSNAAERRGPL

Nc1ccn([C@@H]2O[C@H](CO)[C@@H](O)C2(F)F)c(=O)n1 [gemcitabine]
gene expression levels of SYCP3, SPESP1, and DAZL1 [1]: equivalent to those of the controls

DVQKIVESQINFHGKKLKLG (listed as Homo sapiens) [p11]
HLA type bound to stimulate Th cells [2]: HLA-DR4/9/53

DVQKIVESQINFHGKKLKLGPAIRKQNLC (listed as Homo sapiens) [DAZL-1C]
ability to activate helper T-cells (peptide-specific IFN-γ production) (helper T-cells; Balb/c mice, 100 μg i.d. Days 0 and 10, restimulation 2.5 μg/mL, 24 hours): activates helper T-cells | IFN-γ production specific to peptide with anti-CD4 antibody (helper T-cells; anti-mouse CD4 antibody 5 μg/mL): inhibited

INFHGKKLKLGPAIRKQNLC (listed as Homo sapiens) [p12]
HLA type bound to stimulate Th cells [2]: HLA-DR15

KILQQSRIVQSQ (listed as Homo sapiens) [T4]
IFN-γ production of SYCP3-A peptide-specific Th cells [3]: Increased IFN-γ production | T-cell response of CD4-positive T-cells to partial peptide by ELISPOT (CD4-positive T-cells): responded

LGPAIRKQNLCAYHVQPRPL (listed as Homo sapiens) [p13]
IFN-γ production with anti-HLA-DQ antibody (DAZL1-specific Th cells): suppressed | HLA type bound to stimulate Th cells [2]: HLA-DR8

QKILQQSRIVQS (listed as Homo sapiens) [T3]
IFN-γ production of SYCP3-A peptide-specific Th cells [3]: Increased IFN-γ production | T-cell response of CD4-positive T-cells to partial peptide by ELISPOT (CD4-positive T-cells): responded

QNLNHYIQVLENLVRSVPS (listed as Homo sapiens) [SPESP1-B]
HLA type binding and Th cell stimulation (HLA-DR53 [4]): binds to HLA-DR53 and stimulates Th cells | peptide-specific IFN-γ production with anti-HLA-DR antibody ([5]; clones HK15 and HK18, aDR): suppressed | IFN-γ production at low concentration ([5]; peptide 0.0003 μg/mL (serially diluted 0.0003 to 30 μg/mL)): sufficient IFN-γ production

QQKILQQSRIVQ (listed as Homo sapiens) [T2]
T-cell response of CD4-positive T-cells to partial peptide by ELISPOT (CD4-positive T-cells): responded

QQQKILQQSRIVQSQRLKT (listed as Homo sapiens) [SYCP3-A]
peptide-specific IFN-γ production with anti-HLA-DR antibody ([3]; SYCP3-A 3 μg/mL, aDR 5 μg/mL, Th clones from three healthy donors): suppressed | reactivity in samples having no DR53 allele (HLA-DR53 [6]): some reactivity | peptide-specific reaction (IFN-γ) of Th cells to L-DR53 cells (HLA-DR53 [7]): strong peptide-specific reactions

QQQKILQQSRVVQSQRLKT (listed as Homo sapiens) [SEQ ID NO: 31, 11th isoleucine residue of SYCP3-A peptide substituted with a valine residue]
reactivity of SYCP3-A peptide-specific Th cells compared with SYCP3-A ([3]; modified or substituted peptide, similarly tested): not decreased

From US20220152174A1, “Cancer Antigen Peptide” (National University Corporation Asahikawa Medical University, priority 2018, published 2022)
